Source: patent US11034725B2, “Compositions and methods for treating cardiovascular disease” (Genentech, Inc., priority 2016, dated 2021)
Like-named read-outs stand apart in the source and are kept apart here. Numbered stars: 1 amine (or outer) side, 2 acyl side, 3 side chain; on linkers, the order of the positions; unused ones are H or OH. Bridge positions count the residues as written; N and C are the ends. Square brackets hold non-standard residues; d marks the D form. Peptide text beside a SMILES is read from it. * marks the point of attachment. NH(CH2)8CO = O=C(CCCCCCCCN[*:1])[*:2]; hArg = N=C(N)NCCCC[C@H](N)C(=O)O; Pentanoyl = CCCCC(=O)*

How the values were obtained:
[1] = biological target: PCSK9 (Homo sapiens, UniProt Q8NBP7); experiment: PCSK9/EGF(A) TR-FRET binding assay; conditions: TR-FRET, read-out: PCSK9/EGF(A) IC50
[2] = system: His-EGF(A)-Fc; experiment: His-EGF(A)-Fc TR-FRET counterscreen
Procedure: The former was based on a TF-FRET assay to measure the association of the EGF(A) domain of the LDLR to PCSK9 (“PCSK9/EGF(A) binding assay”) whilst the latter was based on a TR-FRET assay to measure binding of Ab20 to PCSK9Δhelix (“PCSK9Δhelix/Ab20 binding assay”).
The ability of compounds to inhibit binding to PCSK9 was evaluated with a panel of time-resolved fluorescence resonance energy transfer (TR-FRET) binding assays. […] The PCSK9Δhelix/Ab20 binding assay evaluated the ability of compounds to compete with Ab20 for binding to the N-terminal groove region in a His-tagged, PCSK9Δhelix construct. […] Signal generation in the PCSK9 binding assays was dependent upon the binding interaction to bring into close proximity the His-tag on the PCSK9 and the Fc-tag on the ligand. Anti-His-APC was bound to the His-tag, and anti-Fc-europium was bound to the Fc-tag. When these two antibodies were in close proximity and were irradiated with light at 340 nm, the europium was excited and emitted energy at 615 nm. This energy was taken up by the APC and was emitted as light at 665 nm. Compounds that competed with the ligand reduced the energy transfer and thus the emission at 665 nm. In the His-EGFA-Fc molecule in the counterscreen, the two tags were always in close proximity, thus any reduction in emission at 665 nm was due to interference with the detection system.
Compounds were solubilized and dilutions were prepared in DMSO. […] The plate was centrifuged to mix the well contents and allowed to incubate for 30 min. […] The TR-FRET signal was read on a ViewLux reader (PerkinElmer) with excitation at 340 nm and emission at 615 and 665 nm with a 50-μs time delay between excitation and measurement of emission. The TR-FRET ratio was calculated as the fluorescence emission at 665 nm divided by the fluorescence emission at 615 nm. The normalized TR-FRET ratios were plotted as a function of the compound concentrations, and the IC50 values were determined using a 4-parameter logistic regression.
In black 1536-well assay plates (MaKO, Aurora® Microplates, Whitefish, Mont.), 40 nL of peptide in DMSO were preincubated with 2 μL His-tagged PCSK9 plus anti-His-allophycocyanin in assay buffer (50 mM Tris-HCl, pH 7.5, 150 mM NaCl, 2 mM CaCl2, 0.01% Tween®-20, 0.1% bovine gamma globulins, and protease inhibitor cocktail) for 30 min. Then 2 μL of Fc-tagged ligand and anti-Fc-europium in assay buffer were added and allowed to incubate for 2 h.

[3] = biological target: T1, PCSK9Δhelix (Homo sapiens, UniProt Q8NBP7); experiment: PCSK9Δhelix/Ab20 TR-FRET binding assay; conditions: for IC50: TR-FRET, read-out: PCSK9Δhelix/Ab20 IC50
T1 construct: Human PCSK9 construct M1-Q692 with an engineered TEV site (residue deletion Y166, R167); made in house; host or cells: CHO

[4] = Table 8D, disulfide-cyclized extension peptides
[5] = TR-FRET counterscreen, Table 8D, * = some inhibition at highest concentrations, not sufficient to fit an IC50
[6] = TR-FRET counterscreen, Table 8E, additional compounds

T1 sequence (Q8NBP7 with tags, fused parts or gaps limits assumed): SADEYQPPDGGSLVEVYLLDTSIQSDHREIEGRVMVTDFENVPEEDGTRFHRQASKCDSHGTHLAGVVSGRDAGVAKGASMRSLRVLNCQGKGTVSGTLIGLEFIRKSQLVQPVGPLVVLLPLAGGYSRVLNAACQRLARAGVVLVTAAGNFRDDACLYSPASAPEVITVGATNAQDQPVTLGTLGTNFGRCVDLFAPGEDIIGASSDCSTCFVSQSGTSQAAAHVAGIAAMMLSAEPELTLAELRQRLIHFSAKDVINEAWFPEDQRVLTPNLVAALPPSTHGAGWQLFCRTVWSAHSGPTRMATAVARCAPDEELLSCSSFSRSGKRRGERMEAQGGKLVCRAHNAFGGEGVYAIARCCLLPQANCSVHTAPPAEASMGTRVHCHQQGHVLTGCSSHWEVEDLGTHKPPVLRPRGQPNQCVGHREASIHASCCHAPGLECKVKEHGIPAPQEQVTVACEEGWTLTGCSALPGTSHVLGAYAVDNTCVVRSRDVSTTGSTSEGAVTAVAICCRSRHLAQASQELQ
T1 sequence (Q8NBP7 31-152 partner limits assumed): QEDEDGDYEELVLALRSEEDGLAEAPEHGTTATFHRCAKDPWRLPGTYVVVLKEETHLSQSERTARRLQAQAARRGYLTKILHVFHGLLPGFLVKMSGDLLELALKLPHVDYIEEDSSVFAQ
Sequence of PCSK9 (Q8NBP7 153-692): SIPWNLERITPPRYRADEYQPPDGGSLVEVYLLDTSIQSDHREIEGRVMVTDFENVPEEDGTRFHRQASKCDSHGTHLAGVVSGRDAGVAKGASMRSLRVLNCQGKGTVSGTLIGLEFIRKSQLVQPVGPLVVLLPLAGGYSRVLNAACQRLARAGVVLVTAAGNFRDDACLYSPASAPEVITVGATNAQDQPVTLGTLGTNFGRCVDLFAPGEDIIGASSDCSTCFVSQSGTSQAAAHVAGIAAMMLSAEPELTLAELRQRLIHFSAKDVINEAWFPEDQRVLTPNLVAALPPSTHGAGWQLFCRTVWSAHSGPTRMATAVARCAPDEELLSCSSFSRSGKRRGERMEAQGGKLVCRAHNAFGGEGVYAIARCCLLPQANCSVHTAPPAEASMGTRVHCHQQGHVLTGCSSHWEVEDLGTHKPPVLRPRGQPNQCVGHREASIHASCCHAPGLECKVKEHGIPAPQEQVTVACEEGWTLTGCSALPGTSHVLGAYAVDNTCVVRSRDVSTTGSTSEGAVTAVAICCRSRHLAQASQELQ
Sequence of PCSK9 (Q8NBP7 31-152 partner limits assumed): as the sequence (Q8NBP7 31-152 partner limits assumed) above

Compound	IC50 [1, 4]	IC50 [2, 5]	IC50 [3, 4]	IC50 ([1]; Example 7)	IC50 ([2]; counterscreen, Example 7)	IC50 ([3]; Example 7)	IC50 ([1]; Table 8E, additional compounds)	IC50 [2, 6]	IC50 ([3]; Table 8E, additional compounds)	further results
CC(=O)N[C@H]1CSSC[C@@H](C(N)=O)NC(=O)CCCCCCCCNC(=O)[C@H](CCCNC(=N)N)NC(=O)[C@H](CCC(N)=O)NC(=O)[C@H](CC(C)C)NC(=O)[C@H](CC(N)=O)NC(=O)[C@H](Cc2c[nH]c3ccccc23)NC(=O)[C@@H]2CCCN2C(=O)[C@H](CC(C)C)NC(=O)[C@H](CCCNC(=N)N)NC1=O [Compound 85] (Ac-CRLPWNLQR[NH(CH2)8CO]C-NH2; disulfide 1-11)	> 50 µM	> 50 µM	> 50 µM	–	–	–	–	–	–	inhibition in the PCSK9Δhelix/Ab20 binding assay [3]: removes inhibition
Ac-DLMPWNLVRIALLR-NH2 [Compound 57]	–	–	–	> 50 µM	> 50 µM	> 49.5 µM	–	–	–	–
CC[C@H](C)[C@H](NC(=O)[C@H](CCCCNC(=N)N)NC(=O)[C@@H](NC(=O)[C@H](CC(C)C)NC(=O)[C@H](CC(N)=O)NC(=O)[C@@H](N)Cc1c[nH]c2ccccc12)C(C)C)C(=O)NCC(N)=O [Compound 236, WNLV(homoR)IG-NH2] (H-WNLV[hArg]IG-NH2)	–	–	–	–	–	–	≥ 50 µM	≥ 50 µM	22 µM	–
CC[C@H](C)[C@@H]1NC(=O)[C@H](CCCNC(=N)N)NC(=O)[C@H](CCC(N)=O)NC(=O)[C@H](CC(C)C)NC(=O)[C@@H](CC(N)=O)NC(=O)[C@H](Cc2c[nH]c3ccccc23)NC(=O)[C@@H]2CCCN2C(=O)[C@H](CC(C)C)NC(=O)[C@H](CCCNC(=N)N)NC(=O)[C@@H](NC(C)=O)CSSC[C@@H](C(N)=O)NC(=O)[C@@H]2CCCN2C(=O)[C@H](CC(C)C)NC(=O)CNC1=O [Compound 105] (Ac-CRLPW[dN]LQRIGLPC-NH2; disulfide 1-14)	> 50 µM	> 50 µM	> 50 µM	–	–	–	–	–	–	–
CCCCC(=O)N[C@@H](Cc1c[nH]c2ccccc12)C(=O)N[C@@H](CC(N)=O)C(=O)N[C@@H](CC(C)C)C(=O)N[C@H](C(=O)N[C@@H](CCCCNC(=N)N)C(=O)N[C@H](C(=O)NCC(=O)N[C@@H](CC(C)C)C(=O)N[C@H](C(=O)N[C@@H](CCCNC(=N)N)C(N)=O)[C@@H](C)O)[C@@H](C)CC)C(C)C [Compound 234, n-BuC(O)-WNLV(homoR)IGLTR-NH2] (Pentanoyl-WNLV[hArg]IGLTR-NH2)	–	–	–	–	–	–	≥ 50 µM	≥ 50 µM	1.4 µM	–
Ac-DLMPWNLVRI-NH2 [Compound 49]	–	–	–	> 50 µM	> 50 µM	≥ 49.5 µM	–	–	–	–
CC(=O)N[C@H](C(=O)N[C@H](C(=O)N[C@@H](Cc1ccccc1)C(=O)N[C@H](C(=O)N[C@@H](CO)C(=O)N[C@@H](Cc1c[nH]c2ccccc12)C(=O)N[C@@H](CCC(=O)O)C(=O)N[C@@H](CCC(=O)O)C(=O)N[C@@H](Cc1ccc(O)cc1)C(=O)N[C@@H](CC(C)C)C(=O)N[C@@H](CC(=O)O)C(=O)N[C@@H](Cc1c[nH]c2ccccc12)C(=O)N[C@H](C(=O)NCCCCCCCC(=O)N[C@@H](CCCCN)C(=O)N[C@@H](CC(C)C)C(=O)N[C@@H](Cc1c[nH]c2ccccc12)C(=O)N[C@@H](CC(N)=O)C(=O)N[C@@H](CC(C)C)C(=O)NCC(=O)N[C@@H](CCCNC(=N)N)C(=O)N[C@H](C(N)=O)C(C)C)C(C)C)[C@@H](C)O)C(C)C)[C@@H](C)O [Compound 10]	–	–	–	0.63 µM	> 50 µM	0.63 µM	–	–	–	–
Ac-DLAPWNLVRIGLLR-NH2 [Compound 43]	–	–	–	> 50 µM	> 50 µM	8.19 µM	–	–	–	–
CC[C@H](C)[C@@H]1NC(=O)[C@H](CCCNC(=N)N)NC(=O)[C@H](CCC(N)=O)NC(=O)[C@H](C)NC(=O)[C@H](CC(N)=O)NC(=O)[C@H](Cc2c[nH]c3ccccc23)NC(=O)[C@@H]2CCCN2C(=O)[C@H](CC(C)C)NC(=O)[C@H](CCCNC(=N)N)NC(=O)[C@@H](NC(C)=O)CSSC[C@@H](C(N)=O)NC(=O)[C@@H]2CCCN2C(=O)[C@H](CC(C)C)NC(=O)CNC1=O [Compound 74] (Ac-CRLPWNAQRIGLPC-NH2; disulfide 1-14)	> 50 µM	> 50 µM	49.5 µM	–	–	–	–	–	–	–
CC[C@H](C)[C@H](NC(=O)[C@H](CCCCNC(=N)N)NC(=O)[C@@H](NC(=O)[C@H](CC(C)C)NC(=O)[C@H](CC(N)=O)NC(=O)[C@@H](N)Cc1c[nH]c2ccccc12)C(C)C)C(=O)NCC(=O)N[C@@H](CC(C)C)C(=O)N[C@@H](CC(C)C)C(=O)N[C@@H](CCC(N)=O)C(N)=O [Compound 237, WNLV(homoR)IGLLQ-NH2] (H-WNLV[hArg]IGLLQ-NH2)	–	–	–	–	–	–	8.8 µM	46 µM	0.33 µM	–
CC[C@H](C)[C@@H]1NC(=O)[C@H](CCCNC(=N)N)NC(=O)[C@H](CCCCN)NC(=O)[C@H](CC(C)C)NC(=O)[C@H](CC(N)=O)NC(=O)[C@H](Cc2c[nH]c3ccccc23)NC(=O)[C@@H]2CCCN2C(=O)[C@H](CC(C)C)NC(=O)[C@H](CCCNC(=N)N)NC(=O)[C@@H](NC(C)=O)CSSC[C@@H](C(N)=O)NC(=O)[C@@H]2CCCN2C(=O)[C@H](CC(C)C)NC(=O)CNC1=O [Compound 67] (Ac-CRLPWNLKRIGLPC-NH2; disulfide 1-14)	> 50 µM	> 50 µM	0.699 µM	–	–	0.7 µM	–	–	–	–
CC[C@H](C)[C@@H]1NC(=O)[C@H](CCCNC(=N)N)NC(=O)[C@H](CCC(N)=O)NC(=O)[C@H](CC(C)C)NC(=O)[C@H](CC(N)=O)NC(=O)[C@H](Cc2c[nH]c3ccccc23)NC(=O)[C@@H]2CCCN2C(=O)[C@H](CC(C)C)NC(=O)[C@H](CCCNC(=N)N)NC(=O)[C@@H](NC(C)=O)CSSC[C@@H](C(N)=O)NC(=O)[C@H](C)NC(=O)[C@H](CC(C)C)NC(=O)CNC1=O [Compound 68] (Ac-CRLPWNLQRIGLAC-NH2; disulfide 1-14)	> 50 µM	> 50 µM	0.939 µM	–	–	–	–	–	–	–
Ac-DLMPWNLVRIGLL-NH2 [Compound 46]	–	–	–	> 50 µM	> 50 µM	14 µM	–	–	–	–
Ac-GLMPWNLVRIGLLR-NH2 [Compound 124]	–	–	–	–	–	–	≥ 50 µM	≥ 50 µM	3.9 µM	–
CC[C@H](C)[C@@H]1NC(=O)[C@H](CCCNC(=N)N)NC(=O)[C@H](C)NC(=O)[C@H](CC(C)C)NC(=O)[C@H](CC(N)=O)NC(=O)[C@H](Cc2c[nH]c3ccccc23)NC(=O)[C@H](CC(C)C)NC(=O)[C@@H](NC(=O)[C@H](Cc2ccccc2)NC(C)=O)CSSC[C@@H](C(=O)N[C@@H](Cc2c[nH]c3ccccc23)C(=O)N[C@@H](Cc2ccccc2)C(N)=O)NC(=O)[C@H](CCC(N)=O)NC(=O)[C@H](CO)NC(=O)CNC1=O [Compound 88] (Ac-FCLWNLARIGSQCWF-NH2; disulfide 2-13)	–	> 50 µM	7.46 µM	17.9 µM	–	–	–	–	–	–
CC[C@H](C)[C@@H]1NC(=O)[C@H](CCCNC(=N)N)NC(=O)[C@H](CCCCN)NC(=O)[C@H](CC(C)C)NC(=O)[C@H](CC(N)=O)NC(=O)[C@H](Cc2c[nH]c3ccccc23)NC(=O)[C@H](CC(C)C)NC(=O)[C@@H](NC(=O)[C@H](Cc2ccccc2)NC(C)=O)CSSC[C@@H](C(=O)N[C@@H](CCC(=O)O)C(=O)N[C@@H](Cc2ccc(O)cc2)C(N)=O)NC(=O)[C@H](CCC(N)=O)NC(=O)[C@H](CO)NC(=O)CNC1=O [Compound 95] (Ac-FCLWNLKRIGSQCEY-NH2; disulfide 2-13)	> 50 µM	> 50 µM	12.7 µM	–	–	–	–	–	–	–
Ac-SGDLMPWNLVRIGLLR-NH2 [Compound 122]	–	–	–	–	–	–	≥ 50 µM	≥ 50 µM	5.6 µM	–
CC[C@H](C)[C@@H]1NC(=O)[C@H](CCCNC(=N)N)NC(=O)[C@H](CCC(N)=O)NC(=O)[C@H](CC(C)C)NC(=O)[C@H](CC(N)=O)NC(=O)[C@H](Cc2c[nH]c3ccccc23)NC(=O)[C@@H]2CCCN2C(=O)[C@H](CC(C)C)NC(=O)[C@H](CCCNC(=N)N)NC(=O)[C@@H](NC(C)=O)CSSC[C@@H](C(N)=O)NC(=O)CNC(=O)CNC(=O)CNC1=O [Compound 81] (Ac-CRLPWNLQRIGGGC-NH2; disulfide 1-14)	> 50 µM	> 50 µM	28.8 µM	–	–	–	–	–	–	–
CC[C@H](C)[C@@H]1NC(=O)[C@H](CCCNC(=N)N)NC(=O)[C@H](CCC(N)=O)NC(=O)[C@H](CC(C)C)NC(=O)[C@H](CC(N)=O)NC(=O)[C@H](Cc2c[nH]c3ccccc23)NC(=O)[C@@H]2CCCN2C(=O)[C@H](CC(C)C)NC(=O)[C@H](CCCNC(=N)N)NC(=O)[C@@H](NC(C)=O)CSSC[C@@H](C(N)=O)NC(=O)[C@@H]2CCCN2C(=O)[C@@H](CC(C)C)NC(=O)CNC1=O [Compound 100] (Ac-CRLPWNLQRIG[dL]PC-NH2; disulfide 1-14)	> 50 µM	> 50 µM	> 50 µM	–	–	–	–	–	–	–
CCCCC(=O)N[C@@H](Cc1c[nH]c2ccccc12)C(=O)N[C@@H](CC(N)=O)C(=O)N[C@@H](CC(C)C)C(=O)N[C@H](C(=O)N[C@@H](CCCNC(=N)N)C(=O)N[C@H](C(=O)NCC(=O)N[C@@H](CC(C)C)C(=O)N[C@H](C(=O)N[C@@H](CCCNC(=N)N)C(=O)O)[C@@H](C)O)[C@@H](C)CC)C(C)C [Compound 176] (Pentanoyl-WNLVRIGLTR-OH)	–	–	–	–	–	–	≥ 50 µM	≥ 50 µM	18 µM	–
CCCCC(=O)N[C@@H](Cc1c[nH]c2ccccc12)C(=O)N[C@@H](CC(N)=O)C(=O)N[C@@H](CC(C)C)C(=O)N[C@H](C(=O)N[C@@H](CCCNC(=N)N)C(=O)N[C@H](C(=O)NCC(=O)N[C@@H](CC(C)C)C(=O)N[C@@H](CC(=O)O)C(=O)N[C@@H](CCCNC(=N)N)C(N)=O)[C@@H](C)CC)C(C)C [Compound 178] (Pentanoyl-WNLVRIGLDR-NH2)	–	–	–	–	–	–	≥ 50 µM	≥ 50 µM	18 µM	–
Ac-DLMPWNLVRIGL-NH2 [Compound 47]	–	–	–	> 50 µM	> 50 µM	12.6 µM	–	–	–	–
Ac-DLMPWALVRIGLLR-NH2 [Compound 62]	–	–	–	> 50 µM	> 50 µM	> 49.5 µM	–	–	–	–
